Reference: patent US20030166692A1, “Composition useful as anticancer drug and radiosensitizer” (PHARMGENIA CO., LTD. of Developmental Genetics Laboratory,, priority 2002, published 2003)

What was measured:
[1] = tested on: human NCI-H460 lung cancer cell line; test: Colony formation of NCI-H460 cells, compound followed by γ-irradiation; format: cell-based; details: for The survival rate of cancer cells (combination therapy): colony formation vs un-irradiated compound-treated cells
Description: (§1) Using the same method as described in Example 1, human A549 and NCI-H460 lung cancer cell lines (obtained from ATCC) were incubated in RPMI1640 culture medium.
(§2) Then, cancer cells were collected and placed into 60 mm (in diameter) petri dishes, 300 cells per petri dish. After the cancer cells were incubated in water-containing CO2 incubator at 37° C. for 24 hours, 1 ng/ml and 0.1 ng/ml of the compound of formula I dissolved in DMSO were treated to human NCI-H460 and A549 cells, respectively. Four (4) hours later, the cancer cells were irradiated with a different amount of γ-rays using ^137Cs γ-rays source (Atomic Energy of Canada, Ltd., Canada). After cultivated for 10 days, the colonies were dyed with 1% methylene blue. Colonies having diameters of 200 μm or more were counted using Colony Counter (Imaging Products, Chantilly, Va.).
(§3) The results regarding colony formation are shown in the following Tables 3 and 4, and FIGS. 3 and 4.

[2] = tested on: human NCI-H460 lung cancer cell line; test: MTT survival of NCI-H460 cancer cells after treatment with the compound of formula I; format: cell-based; details: for The survival rate of cancer cells: MTT, relative to DMSO control
Description: (§4) In this Example, the effect of the compound of formula I as an anticancer agent was evaluated in vitro using human NCI-H460 and SNU638 cancer cell lines.
(§5) The inventor purchased the compound of formula I from ChemBridge Corporation (San Diego, Calif.). Human NCI-H460 lung cancer cell line was obtained from ATCC (American Type Culture Collection), while human SNU638 gastric cancer cell line from KCLB (Korean Cell Line Bank).
(§6) Under […] at 37° C., the human NCI-H460 and SNU638 cancer cell lines were incubated for 4 days in RPMI1640 culture medium (GIBCO/BRL, Grand Island, N.Y.) containing 10% calf fetus serum, penicillin 100 units/ml, and streptomycin 100 μg/ml.
In the case of the NCI-H460 cell line, the compound of formula I was dissolved in DMSO (dimethyl sulfoxide) in order to make its concentration 0.1 ng/ml, 1 ng/ml, 10 ng/ml, 100 ng/ml, 1,000 ng/ml and 10,000 ng/ml, respectively. During incubation, the NCI-H460 cells were treated with each concentration of the compound of formula I, respectively.
(§7) Then, any surviving cancer cells were dyed with MTT [3-(4,5-dimethylthiazol-2-yl)-2,5-diphenyltetrazolium bromide] and quantified at 540 nm with a microplate reader.
(§8) Following Tables 1 and 2, and FIGS. 1 and 2, respectively show the survival rate of cancer cells, based on relative absorbance rate in reference to control (i.e. cancer cells treated with DMSO only). […] When treated with 1,000 ng/ml of the compound of formula I, about 80% (in the case of the NCI-H460 cell line) and 94% (in the case of the SNU638 cell line) of cancer cells were killed.

[3] = tested on: human SNU638 gastric cancer cell line; test: MTT survival of SNU638 cancer cells after treatment with the compound of formula I; format: cell-based; details: for The survival rate of cancer cells: MTT, relative to DMSO control
Description: as §4, §5, §6
In the case of the SNU638 cell line, the compound of formula I was dissolved in DMSO in order to make its concentration 1 ng/ml, 10 ng/ml, 100 ng/ml, 1,000 ng/ml and 10,000 ng/ml, respectively. During incubation, the SNU638 cells were treated with each concentration of the compound of formula I, respectively.
as §7, §8

[4] = tested on: human A549 lung cancer cell line; test: Colony formation of A549 cells, compound followed by γ-irradiation; format: cell-based; details: for The survival rate of cancer cells (combination therapy): colony formation vs un-irradiated compound-treated cells
Description: as §1, §2, §3

[5] = tested on: NCI-H460 cells transplanted into mice; test: Tumor volume of NCI-H460 cells transplanted into mice; format: in vivo
Description: Six (6) week old mice of BALB/cAnNCrj-nu/nu strain, which were obtained from Chales River Japan Inc. (Japan), were subcutaneously injected lung cancer cells (NCI-H460 cell line, 5×10^6 cells) to develop tumors.
Mice were selected whose tumor volume reached 120 mm^3, and subdivided into 4 groups each having 5 mice: Group 1 (control, treated with DMSO); Group 2 (treated only with 10 mg/kg of the compound of formula I); Group 3 (treated only with 5 Gy of irradiation); and Group 4 (treated with 10 mg/kg of the compound of formula I and 5 Gy of irradiation).
Five (5) times with 5 day intervals between each time, DMSO or the compound of formula I was subcutaneously injected to the mice of Groups 1, 2 and 4, and γ-rays were irradiated to the mice of Groups 3 and 4.
The compound of formula I was dissolved in DMSO to make its concentration 5 mg/ml. 40 μl of DMSO and the compound of formula I each were administered to Groups 1, 2 and 4, respectively. The mice of Group 4 were subcutaneously injected with the compound of formula I, and 4 hours later followed by irradiation. The change of tumor volume in each Group was observed 11 times with 3 to 5 days of interval for 42 days.

Compound: CSC(=S)N/N=C(\c1ccccc1)c1ccccn1 [compound of formula I, N′-(phenyl-pyridin-2-yl-methylene)-hydrazine carbodithioic acid methyl ester]
- The survival rate of cancer cells (combination therapy) ([1]; 1 ng/ml compound then 1 Gy): 37.5%
- The survival rate of cancer cells (combination therapy) ([1]; 1 ng/ml compound then 3 Gy): 9%
- The survival rate of cancer cells (combination therapy) ([1]; 1 ng/ml compound then 5 Gy): 1%
- The survival rate of cancer cells (combination therapy) ([1]; 1 ng/ml compound then 7 Gy): 0.01%
- cancer cells killed ([1]; 1 ng/ml followed by 1 Gy, in comparison with 1 ng/ml and no irradiation): 62.5%
- enhanced anticancer effect in comparison with 1 Gy of irradiation ([1]; 1 ng/ml in combination with 1 Gy): 27.5%
- radio-enhanced cancer treatment effect ([1]; 1 Gy or more irradiated, 1 ng/ml): significantly effective
- The survival rate of cancer cells ([2]; 0.1 ng/ml): 90.2%
- cancer cells killed ([2]; 1 ng/ml): about 12%
- The survival rate of cancer cells ([2]; 1 ng/ml): 87.7%
- The survival rate of cancer cells ([2]; 10 ng/ml): 51.3%
- The survival rate of cancer cells ([2]; 100 ng/ml): 36.6%
- cancer cells killed ([2]; 1,000 ng/ml): about 80%
- The survival rate of cancer cells ([2]; 1,000 ng/ml): 20%
- The survival rate of cancer cells ([2]; 10,000 ng/ml): 2%
- cancer cells killed ([3]; 1 ng/ml): ~35%
- The survival rate of cancer cells ([3]; 1 ng/ml): 64.46%
- The survival rate of cancer cells ([3]; 10 ng/ml): 53.22%
- The survival rate of cancer cells ([3]; 100 ng/ml): 46.41%
- cancer cells killed ([3]; 1,000 ng/ml): ~94%
- The survival rate of cancer cells ([3]; 1,000 ng/ml): 5.71%
- The survival rate of cancer cells ([3]; 10,000 ng/ml): 3.87%
- The survival rate of cancer cells (combination therapy) ([4]; 0.1 ng/ml compound then 1 Gy): 53%
- The survival rate of cancer cells (combination therapy) ([4]; 0.1 ng/ml compound then 3 Gy): 10%
- The survival rate of cancer cells (combination therapy) ([4]; 0.1 ng/ml compound then 5 Gy): 2%
- The survival rate of cancer cells (combination therapy) ([4]; 0.1 ng/ml compound then 7 Gy): 1%
- cancer cells killed ([4]; 0.1 ng/ml followed by 1 Gy, in comparison with 0.1 ng/ml and no irradiation): 47%
- increased anticancer effect in comparison with 1 Gy of irradiation only ([4]; 0.1 ng/ml in combination with 1 Gy): 32%
- radio-enhanced cancer treatment effect ([4]; 1 Gy or more irradiated, 0.1 ng/ml): significantly effective
- tumor volume ([5]; Combination: 10 mg/kg s.c. + 5 Gy irradiation, 10 days): 133 mm^3
- tumor volume ([5]; Combination: 10 mg/kg s.c. + 5 Gy irradiation, 13 days): 268 mm^3
- tumor volume ([5]; Combination: 10 mg/kg s.c. + 5 Gy irradiation, 18 days): 379 mm^3
- tumor volume ([5]; Combination: 10 mg/kg s.c. + 5 Gy irradiation, 21 days): 539 mm^3
- tumor volume ([5]; Combination: 10 mg/kg s.c. + 5 Gy irradiation, 24 days): 710 mm^3
- tumor volume ([5]; Combination: 10 mg/kg s.c. + 5 Gy irradiation, 26 days): 760 mm^3
- tumor volume ([5]; Combination: 10 mg/kg s.c. + 5 Gy irradiation, 29 days): 862 mm^3
- tumor volume ([5]; Combination: 10 mg/kg s.c. + 5 Gy irradiation, 33 days): 950 mm^3
- tumor volume ([5]; Combination: 10 mg/kg s.c. + 5 Gy irradiation, 36 days): 1,086 mm^3
- tumor volume ([5]; Combination: 10 mg/kg s.c. + 5 Gy irradiation, 39 days): 1,079 mm^3
- tumor volume ([5]; Combination: 10 mg/kg s.c. + 5 Gy irradiation, 42 days): 1,164 mm^3
- increase rate of the tumor volume ([5]; Group 2 (compound only, 10 mg/kg) vs Group 1 (control)): much lower than in Group 1
- increase in tumor volume ([5]; Group 4 (compound + 5 Gy irradiation) compared to Group 3 (irradiation only)): little increase in tumor volume
- tumor volume ([5]; compound only, 10 mg/kg s.c., 10 days): 179 mm^3
- tumor volume ([5]; compound only, 10 mg/kg s.c., 13 days): 258 mm^3
- tumor volume ([5]; compound only, 10 mg/kg s.c., 18 days): 614 mm^3
- tumor volume ([5]; compound only, 10 mg/kg s.c., 21 days): 923 mm^3
- tumor volume ([5]; compound only, 10 mg/kg s.c., 24 days): 1,274 mm^3
- tumor volume ([5]; compound only, 10 mg/kg s.c., 26 days): 1,766 mm^3
- tumor volume ([5]; compound only, 10 mg/kg s.c., 29 days): 2,211 mm^3
- tumor volume ([5]; compound only, 10 mg/kg s.c., 33 days): 2,759 mm^3
- tumor volume ([5]; compound only, 10 mg/kg s.c., 36 days): 3,374 mm^3
- tumor volume ([5]; compound only, 10 mg/kg s.c., 39 days): 3,787 mm^3
- tumor volume ([5]; compound only, 10 mg/kg s.c., 42 days): 4,133 mm^3
